The record followed here is patent US20070249501A1 (priority 2004, published 2007).

For data set [1], the system named is microbial populations in soil. It is filed as cell-based.
Data set [2] has as its system tomato (cv. 870) seedlings. Conditions: in vivo.
Data set [3] relates to root-knot nematode Meloidogyne javanica. Conditions: in vivo.
For the next data set, the system named is Sclerotium rolfsii. It counts as cell-based.
Data set [4] has as its system Fusarium oxysporum f. sp. radicis-lycopersici (FORL). It is filed as cell-based.

With `CN1CSC(=S)N(C)C1` [Dazomet, dazomet], the “effect on population densities of FORL, Verticillium dahliae, Macrophomina phaseolina and Streptomyces spp. in soil (FIG. 3)” value in data set [1] is listed as “the effect of bromopicrin was similar to the effect of the commercial fumigant Basamid”.
Regarding `OCC(CBr)(CBr)CBr` [TBNPA, tribromoneopentyl alcohol], the “reduction of microbial populations in soil” value (“reduction” for short) in data set [1] is recorded as “none of the tested industrial biocides was capable of significantly reducing microbial populations in soil”.
Consider `COc1ccc(C=CC(=O)O)cc1` [MCA, methoxy cinnamic acid], for which the “reduction” value in data set [1] is reported as “none of the tested industrial biocides was capable of significantly reducing microbial populations in soil”.
Consider `BrC(Br)Br` [BF, bromoform], for which the “reduction” value in data set [1] is “none of the tested industrial biocides was capable of significantly reducing microbial populations in soil”.
Still for that read-out and setting: the entry for `OCC(CO)(CBr)CBr` [DBNPG, dibromoneopentyl glycol] is “none of the tested industrial biocides was capable of significantly reducing microbial populations in soil”.
As for `O=S([O-])S(=O)(=O)[O-].[K+].[K+]` [PMS, potassium metabisulfite], the “root system development in treated soil” value in data set [2] is on record as “substantially stunted root system”. Besides, the “reduction” value in data set [1] is “none of the tested industrial biocides was capable of significantly reducing microbial populations in soil”.
Consider `ClC=CCCl` [1,3-dichloropropene], for which the “galling index of tomato plant roots” value in data set [3] was “zero”.
Regarding tetramethylammonium bromide [TMBr], in data set [1], the “reduction” value was “none of the tested industrial biocides was capable of significantly reducing microbial populations in soil”.
Consider `O=[N+]([O-])CBr` [monobromonitromethane, bromonitromethane], for which the “control of S. rolfosii in soil (percent survival, FIG. 6)” value with Sclerotium rolfsii was “effective in controlling soil-borne fungi”. For the same molecule, the “control of FORL in soil (percent survival, FIG. 6)” value in data set [4] is on record as “effective in controlling soil-borne fungi”.
With `C[N+](=O)[O-]` [nitromethane], the “control of S. rolfosii in soil (percent survival, FIG. 6)” value in the data set with Sclerotium rolfsii is “no effect in controlling pests”. The “control of FORL in soil (percent survival, FIG. 6)” value in data set [4] is given as “no effect in controlling pests”.
Turning to `ClCCBr` [BCE, ethylene bromochloride], the “root system development in treated soil” value in data set [2] is listed as “substantially stunted root system”. Besides, in data set [1], the “reduction” value was “none of the tested industrial biocides was capable of significantly reducing microbial populations in soil”.
As for tetrabromoethane [TBE], the “reduction” value in data set [1] is “none of the tested industrial biocides was capable of significantly reducing microbial populations in soil”.
